Source: patent publication US11433031B2, “Method for manufacturing acetaminophen preparation” (NIPPON ZOKI PHARMACEUTICAL CO., LTD., priority 2016, dated 2022)

experiment: not given; conditions: data of another company, different apparatus and conditions; cited from earlier work

Row | Structure (SMILES) | D10 | D90
1 | CC(=O)Nc1ccc(O)cc1 [Lot E, acetaminophen] | 93 μm | 559 μm
2 | CC(=O)Nc1ccc(O)cc1 [Lot F, acetaminophen] | 220 μm | 663 μm
3 | CC(=O)Nc1ccc(O)cc1 [Lot Q, acetaminophen] | 5.8 μm | 104 μm
4 | CC(=O)Nc1ccc(O)cc1 [Lot R, acetaminophen] | 9.7 μm | 192 μm

experiment: Particle size distribution by laser-diffraction method (Mastersizer 2000, dry mode); format: physicochemical; conditions: dispersion air pressure 2 Bar, volume conversion
From the text: The acetaminophen to be used in the manufacturing method of the present invention (also referred to as “the present acetaminophen”) has a particle size distribution such that d10 is generally 5 to 300 μm, preferably 10 to 200 μm, more preferably 15 to 100 μm, and d90 is generally 200 to 900 μm, preferably 250 to 800 μm, more preferably 300 to 700 μm. Although there are some differences in the particle size distribution among lots, the unpulverized acetaminophen generally has the above-specified particle size distribution. In contrast, although there are some differences in the particle size distribution of a pulverized product of acetaminophen among the manufacturers of the drug substance and production lots, the particle size distribution of a pulverized product of acetaminophen is generally such that the d10 is 3 to 10 μm and d90 is 100 to 250 μm, and therefore the particle diameters of the pulverized product of acetaminophen are smaller compared with those of the present acetaminophen. In the present invention, the particle size distribution is determined by a volume distribution evaluation employing a laser-diffraction scattering method (Mastersizer 2000: Malvern), and the terms “d10”, “d50”, and “d90” refer to particle diameters at a volume cumulative 10% point, a volume cumulative 50% point, and a volume cumulative 90% point, respectively, as observed from the smaller diameter side in the particle size distribution.
Each of unpulverized products of acetaminophen (lots A to D) and a pulverized product of acetaminophen (lot P) was subjected to a particle size distribution measurement using a particle measurement method (a dry mode measurement) by a laser-diffraction method. As a machine, a dry automated dispersion unit microtray (Mastersizer 2000, Malvern) was used, the dispersion compression air pressure was 2 Bar, and the analysis of particle size distribution was performed by a volume conversion method. The results of lots E, F, Q, and R are data which were obtained by another company using a different measurement apparatus under different measurement conditions from those employed in the test of the present invention. As shown in the results of Table 1, difference may sometimes occur depending on the measurement conditions and measurement apparatuses used in the measurement of particle size distribution.

Row | D10 | D90 | Structure (SMILES)
5 | 20 μm | 320 μm | CC(=O)Nc1ccc(O)cc1 [Lot A, acetaminophen]
6 | 30 μm | 551 μm | CC(=O)Nc1ccc(O)cc1 [Lot B, acetaminophen]
7 | 26 μm | 419 μm | CC(=O)Nc1ccc(O)cc1 [Lot C, acetaminophen]
8 | 20 μm | 464 μm | CC(=O)Nc1ccc(O)cc1 [Lot D, acetaminophen]
9 | 3.7 μm | 166 μm | CC(=O)Nc1ccc(O)cc1 [Lot P, acetaminophen]
